{"source": "patent US20120225889A1", "about": "“USE OF MACROCYCLIC LACTONE DERIVATIVES FOR THE TREATMENT OF INFLAMMATORY DISORDERS” (PIRAMAL LIFE SCIENCES LIMITED, priority 2010, published 2012)", "key": {"[1]": {"test_system": "TNF-α", "test": "Cytokine release assay in hPBMCs: TNF-α", "type": "cell-based", "details": "Homo sapiens", "experimental": "hPBMCs were obtained from healthy donors by centrifugation of heparinized venous blood over Ficoll/Hypaque solution (Histopaque-1077, Sigma, USA). Isolated hPBMCs were suspended in RPMI 1640 culture medium supplemented with 10% FBS and seeded at a density of 50,000 cells/well in a 96-well plate (Nunc, USA). The cells were incubated at 37° C., 5% CO2 for a period of 24 h. These cells were used for the lymphocyte proliferation as well as cytokine release assay.\nThe plated cells were treated with different concentrations of the test compound (prepared as mM stock in DMSO and diluted with DMSO to achieve the following final concentrations in the assay: 100, 10, 1, 0.1, 0.01, 0.001, 0.0001, 0.00001 and 0.000001 μM) and incubated for 30 min. The cells were then stimulated with PHA (prepared as 1 mg/mL stock in RPMI 1640 culture medium and used at a final concentration of 5 μg/mL). FK506 was used as a standard. The plates were incubated at 37° C., 5% CO2 for 48 h. The cytokines in the supernatant collected were detected using ELISA kit (BD biosciences, USA). The cytokines evaluated in the assay were TNF-α, IL-2, IL-6, and IFN-γ."}, "[2]": {"test_system": "IL-6", "test": "hPBMC membrane-monocyte contact bioassay: IL-6", "type": "cell-based", "details": "Homo sapiens, monocytes, 24 h, read-out: inhibition of activated hPBMC mediated IL-6 production", "description": "The assay was designed as in reference, Immunology Letters, 117, 114-118, (2008), the disclosure of which is incorporated by reference for the teaching of the assay. Activated T cell contact-mediated monocyte activation, leading to the production of proinflammatory cytokines (e.g., TNF-α, IL-6), contributes to the pathogenesis of chronic inflammatory diseases including rheumatoid arthritis.\n6-well plates (Nunc, USA) were coated with Goat anti-Mouse IgG, Fc (Chemicon, USA) at a concentration of 16.5 μL/mL in coating buffer ([…] NaHCO3, 3.56 g Na2CO3, pH 9.5).\nThe plates were incubated overnight at 4° C. under sterile conditions. […]\nFollowing incubation, hPBMCs in separate wells of the 6-well plate were harvested, pooled together, and centrifuged. […] The pellet of hPBMC membranes was resuspended in lysis buffer (Sigma, USA) and the protein concentration was determined by the method of Bradford (Sigma, USA).\n100 μL monocytes per well at 5×10^5 cells/mL were added to the 96-well plate (Nunc, USA) and cultured for 48 h at 37° C. […] Supernatants were collected after 24 h and TNF-α and IL-6 production was measured using OptiEIA ELISA sets, (BD BioSciences, USA). […]"}, "[3]": {"test_system": "IL-1β", "test": "Gene expression profile using RTQ-PCR: IL-1β", "type": "cell-based, human", "details": "3 μM", "experimental": "The effect of the compound of example 7 was measured in stimulated untreated cells from the monocytic cell line (THP-1), human monocytes and synovial cells from rheumatoid arthritis patient. The effect of the compound in the THP-1 cell line was measured in terms of gene expression and was expressed as fold changes as compared to the cell stimulated control with no drug treatment.\nTHP-1 cells, human monocytes and synovial cells were treated with compound of example 7 or vehicle (0.5% DMSO). Total RNA isolation using a commercial RNA extraction kit (Qiagen Corporation, Germany) The first-strand cDNA was synthesized from total RNA using first strand cDNA synthesis kit from Invitrogen Corporation (California, USA). This was followed by real time quantitative polymerase chain reaction (RTQ PCR) using gene specific primers and standard thermal program of initial denaturation at 95° C. for 5 min and cycles of 95° C. for 10 seconds, followed by 60° C. for 30 seconds (Realplex PCR machine from Eppendorf, Germany). Quantitative measurement of products made during PCR cycles was normalized against a housekeeping gene (Actin) and was used to measure the gene expression as fold changes as compared to respective control."}}, "note": "Read-outs that look alike come from different tables or passages of the source."}
{"smiles": "C/C=C/C(O)C(C)/C=C/C(=N\\O)C(C)C(O)C(C)C1OC(=O)/C(OC)=C/C(C)=C/C(C)C(O)C(CC)C(O)C(C)C/C(C)=C/C=C/C1OC", "note": "(stereo not shown) [Compound of example 7, (3Z,5E,13E,15E)-18-((5Z,6E,10E)-3,9-Dihydroxy-5-(hydroxymino)-4,8-dimethyldodeca-6,10-dien-2-yl)-9-ethyl-8,10-dihydroxy-3,17-dimethoxy-5,7,11,13-tetramethyl oxacyclooctadeca-3,5,13,15-tetraen-2-one]", "values": [{"measurement": "IC50", "setting": "[1]; Table 3: PHA-PMA induced hPBMC's, 48 h, read-out: TNF-α IC50", "result": 0.02, "unit": "µM"}, {"measurement": "IC50", "setting": "[1]; Table 4: mitogen stimulated production from hPBMC's, read-out: TNF-α (IC50 μM)", "result": 0.07, "unit": "µM"}, {"measurement": "inhibition at 0.3 µM", "setting": "[2]; at 0.3 μM", "result": 66, "unit": "%"}, {"measurement": "inhibition at 0.5 µM", "setting": "[2]; at 0.5 μM", "result": 100, "unit": "%"}, {"measurement": "IL-1β gene expression", "setting": "[3]; Human monocytes, 3 h, ± SE, N = 3", "result": "−4.0", "unit": "log fold change"}, {"measurement": "IL-1β gene expression", "setting": "[3]; Synovial cells, 12 h, N = 1", "result": "−0.3", "unit": "log fold change"}, {"measurement": "IL-1β gene expression", "setting": "[3]; THP-1 cells, 12 h, ± SE, N = 3", "result": "−0.6 + 0.7 log fold change"}]}
